This is an account of results in patent US20090143279A1 (priority 2007, published 2009).

One assay deals with mtOXPHOS transcripts. Format: cell-based, mouse. Particulars: for mitoOX (composite Z-score): normalized score vs mock-treated (DMSO) wells.
Assay [1] relates to cellular dehydrogenase activity. Particulars: for MTT (composite Z-score): normalized score vs mock-treated (DMSO) wells.
The test system of assay [2] is mitochondrial membrane potential. Format: cell-based, mouse. Particulars: for ΔΨm (composite Z-score): normalized score vs mock-treated (DMSO) wells.
The subject of a further assay is reactive oxygen species. In kind it is cell-based, mouse. Particulars: for ROS (composite Z-score): normalized score vs mock-treated (DMSO) wells.
The next assay concerns cytochrome c. In kind it is cell-based, mouse. Particulars: for cyt c (composite Z-score): normalized score vs mock-treated (DMSO) wells.
The subject of the next assay is C2C12 myotubes. Particulars: for Viability (composite Z-score): normalized score vs mock-treated (DMSO) wells.
The subject of a further assay is OXPHOS gene expression. In kind it is cell-based, mouse. As to conditions: for GE-HTS (composite Z-score): normalized score vs mock-treated (DMSO) wells.
For the next assay, the system named is nuOXPHOS transcripts. In kind it is cell-based, mouse. As to conditions: for nucOX (composite Z-score): normalized score vs mock-treated (DMSO) wells.
[3] abbreviates: normalized composite Z-score vs mock-treated (DMSO) wells, Conc 20 μM.
[4] abbreviates: composite Z-score vs mock-treated (DMSO) wells, concentration of each compound in μM.
The mark [5] stands for this setting: composite Z-score vs mock-treated (DMSO) wells, Conc 20 μM.
Setting [6] is: composite Z-score vs DMSO wells, Conc 20 μM.
Where [7] appears, read: composite Z-score vs DMSO, Conc 20 μM.

Read-outs that look alike come from different tables or passages of the source.

In the assay on mtOXPHOS transcripts (setting [3]), `CC(=O)C[C@H]1CCCCN1` [pelletierine] had a mitoOX of −0.077. This molecule yielded an MTT in assay [1] (setting [3]) of −0.341. Besides, in assay [2] (setting [3]), the ΔΨm is −0.120. Besides, the ROS in the assay with reactive oxygen species (setting [3]) was −0.071. The cyt c in the assay on cytochrome c (setting [3]) was 0.349. Moreover, the Viability in the assay on C2C12 myotubes (setting [3]) is listed as −0.418. Moreover, the GE-HTS in the assay with OXPHOS gene expression (setting [3]) was 0.036. In addition, in the assay with nuOXPHOS transcripts (setting [3]), the nucOX is on record as 0.077.
In turn, `CC[C@H](C)[C@H](N)C(=O)N1CCC[C@H]1C(=O)N[C@H](C(=O)O)[C@@H](C)CC` [diprotin A] showed a mitoOX with mtOXPHOS transcripts (setting [4]) of 0.490. This molecule yielded an MTT in assay [1] (setting [4]) of −1.068. In assay [2] (setting [4]), this molecule had a ΔΨm of 0.357. Besides, the ROS in the assay with reactive oxygen species (setting [4]) is 0.300. Moreover, the cyt c with cytochrome c (setting [4]) is listed as −0.975. For the same molecule, in the assay with C2C12 myotubes (setting [4]), the Viability is on record as −0.788. This molecule also displayed a GE-HTS with OXPHOS gene expression (setting [4]) of 0.099. In the assay on nuOXPHOS transcripts (setting [4]), this molecule showed a nucOX of −0.102.
In the case of `CS(=O)(=O)CCCCN=C=S` [erysolin], the “mitoOX (composite Z-score)” value in the assay on mtOXPHOS transcripts (Conc 20 μM) was −0.862. In addition, in assay [1] (Conc 20 μM), the “MTT (composite Z-score)” value is listed as −3.551. Besides, in assay [2] (Conc 20 μM), the “ΔΨm (composite Z-score)” value is given as −0.785. Further, the “ROS (composite Z-score)” value in the assay on reactive oxygen species (Conc 20 μM) is listed as −2.871. For the same molecule, the “cyt c (composite Z-score)” value in the assay on cytochrome c (Conc 20 μM) was −1.868. Moreover, the “Viability (composite Z-score)” value in the assay on C2C12 myotubes (Conc 20 μM) is on record as −4.103. Besides, the “GE-HTS (composite Z-score)” value in the assay with OXPHOS gene expression (Conc 20 μM) was −0.913. Moreover, the “nucOX (composite Z-score)” value with nuOXPHOS transcripts (Conc 20 μM) is given as −0.850.
Turning to `COc1cc2c(cc1OC)[C@@H]1C(=O)c3ccc(O)c(CC=C(C)C)c3O[C@@H]1CO2` [rotenonic acid, reference compound], the mitoOX in the assay on mtOXPHOS transcripts (setting [5]) is recorded as −0.108. In addition, the MTT in assay [1] (setting [5]) is −0.731. Also, the ΔΨm in assay [2] (setting [5]) worked out at 0.050. The ROS in the assay with reactive oxygen species (setting [5]) is recorded as 0.173. For the same molecule, in the assay with cytochrome c (setting [5]), the cyt c was 0.365. This molecule gave a Viability with C2C12 myotubes (setting [5]) of 0.206. Further, the GE-HTS in the assay on OXPHOS gene expression (setting [5]) was −0.064. Besides, the nucOX in the assay on nuOXPHOS transcripts (setting [5]) is −0.010.
For `CCOC(=O)CCCCCCCCCCCCC1C=CCC1` (stereo not drawn) [chaulmoogric acid, ethyl ester], in the assay with mtOXPHOS transcripts (setting [6]), the mitoOX was −0.265. For the same molecule, the MTT in assay [1] (setting [6]) is −0.612. Also, the ΔΨm in assay [2] (setting [6]) is given as −0.536. Further, the ROS with reactive oxygen species (setting [6]) is reported as 0.513. The cyt c in the assay on cytochrome c (setting [6]) stood at 0.617. In the assay on C2C12 myotubes (setting [6]), this molecule yielded a Viability of −0.015. Further, the GE-HTS with OXPHOS gene expression (setting [6]) is given as −0.730. The same molecule registered a nucOX in the assay on nuOXPHOS transcripts (setting [6]) of −0.876.
On to `c1cncc(C2=NCCC2)c1` [myosmine], for which the “mitoOX (composite Z-score)” value with mtOXPHOS transcripts (Conc 27.36 μM) is reported as −0.195. Further, in assay [1] (Conc 27.36 μM), the “MTT (composite Z-score)” value is −1.423. In assay [2] (Conc 27.36 μM), the “ΔΨm (composite Z-score)” value worked out at 0.326. Also, in the assay on reactive oxygen species (Conc 27.36 μM), the “ROS (composite Z-score)” value turned out to be 1.543. Besides, the “cyt c (composite Z-score)” value in the assay on cytochrome c (Conc 27.36 μM) was found to be 1.184. The “Viability (composite Z-score)” value with C2C12 myotubes (Conc 27.36 μM) is −0.497. Further, the “GE-HTS (composite Z-score)” value with OXPHOS gene expression (Conc 27.36 μM) was 0.445. Moreover, the “nucOX (composite Z-score)” value with nuOXPHOS transcripts (Conc 27.36 μM) was 0.712.
Regarding `CC(=O)N[C@@H](CC(C)C)C(=O)O` [acetyl-L-leucine], the mitoOX with mtOXPHOS transcripts (setting [6]) came out at 0.088. This molecule also returned an MTT in assay [1] (setting [6]) of −0.804. Moreover, in assay [2] (setting [6]), the ΔΨm is −0.575. In the assay on reactive oxygen species (setting [6]), the ROS worked out at 1.139. Further, the cyt c in the assay on cytochrome c (setting [6]) is listed as 0.267. For the same molecule, in the assay with C2C12 myotubes (setting [6]), the Viability is on record as −0.465. In the assay with OXPHOS gene expression (setting [6]), this molecule showed a GE-HTS of 0.328. The same molecule returned a nucOX in the assay with nuOXPHOS transcripts (setting [6]) of 0.438.
As to `O=C1C(O)=C(O)C(=O)C(O)=C1O` [tetroquinone], the mitoOX in the assay on mtOXPHOS transcripts (setting [6]) is listed as 0.112. The same molecule displayed an MTT in assay [1] (setting [6]) of −0.574. Moreover, the ΔΨm in assay [2] (setting [6]) was −0.424. Besides, the ROS with reactive oxygen species (setting [6]) is given as 0.638. Besides, in the assay on cytochrome c (setting [6]), the cyt c is recorded as 0.386. In the assay with C2C12 myotubes (setting [6]), the Viability is 0.088. The same molecule showed a GE-HTS in the assay with OXPHOS gene expression (setting [6]) of 0.067. The nucOX in the assay with nuOXPHOS transcripts (setting [6]) came out at 0.028.
Consider `CC(C)=CCc1c(O)cc2occ(-c3ccc4c(c3)OCO4)c(=O)c2c1O` [derrubone], for which the mitoOX with mtOXPHOS transcripts (setting [7]) worked out at 0.066. This molecule showed an MTT in assay [1] (setting [7]) of −0.499. The molecule further displayed a ΔΨm in assay [2] (setting [7]) of −1.272. Besides, the ROS with reactive oxygen species (setting [7]) is given as 1.419. The cyt c in the assay with cytochrome c (setting [7]) is recorded as −0.126. The molecule further came in with a Viability in the assay on C2C12 myotubes (setting [7]) of −0.568. This molecule also returned a GE-HTS in the assay on OXPHOS gene expression (setting [7]) of −0.409. Further, in the assay on nuOXPHOS transcripts (setting [7]), the nucOX is given as −0.626.
